According to patent publication US12077503B2, “Substituted cyclic amides and their use as herbicides” (FMC CORPORATION, priority 2015, dated 2024):

How the values were obtained:
Test in all cases: Test C preemergence
Type in all cases: in vivo
soybean (Glycine max) = details: for Plant response rating, Soybean: scale 0 to 100, 0 no effect, 100 complete control
In short: (§1)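 Assessment: visual, 13–15 d after treatment, 0 (no effect) to 100 (complete control) relative to controls. Treatment: preemergence to seeds in loam-sand soil, or postemergence to 1- to 4-leaf plants in peat-based medium. Formulation: non-phytotoxic solvent mixture with surfactant.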

[1] = system: morningglory (Ipomoea coccinea); details: for Plant response rating, Morningglory: scale 0 to 100, 0 no effect, 100 complete control
In short: as §1

[2] = system: waterhemp (common waterhemp, Amaranthus rudis); details: for Plant response rating, Waterhemp: scale 0 to 100, 0 no effect, 100 complete control
In short: as §1

[3] = system: velvetleaf (Abutilon theophrasti); details: for Plant response rating, Velvetleaf: scale 0 to 100, 0 no effect, 100 complete control
In short: as §1

[4] = system: barnyardgrass (Echinochloa crus-galli); details: for Plant response rating, Barnyardgrass: scale 0 to 100, 0 no effect, 100 complete control
In short: as §1

[5] = system: ragweed (common ragweed, Ambrosia elatior); details: for Plant response rating, Ragweed: scale 0 to 100, 0 no effect, 100 complete control
In short: as §1

corn (Zea mays) = details: for Plant response rating, Corn: scale 0 to 100, 0 no effect, 100 complete control
In short: as §1

[6] = system: wheat (winter wheat, Triticum aestivum); details: for Plant response rating, Wheat: scale 0 to 100, 0 no effect, 100 complete control
In short: as §1

[7] = system: nutsedge, yellow (yellow nutsedge, Cyperus esculentus); details: for Plant response rating, Nutsedge, Yellow: scale 0 to 100, 0 no effect, 100 complete control
In short: as §1

[8] = system: Galium (catchweed bedstraw, Galium aparine); details: for Plant response rating, Galium: scale 0 to 100, 0 no effect, 100 complete control
In short: as §1

[9] = system: blackgrass (Alopecurus myosuroides); details: for Plant response rating, Blackgrass: scale 0 to 100, 0 no effect, 100 complete control
In short: as §1

[10] = system: crabgrass, large (large crabgrass, Digitaria sanguinalis); details: for Plant response rating, Crabgrass, Large: scale 0 to 100, 0 no effect, 100 complete control
In short: as §1

[11] = system: ryegrass, Italian (Italian ryegrass, Lolium multiflorum); details: for Plant response rating, Ryegrass, Italian: scale 0 to 100, 0 no effect, 100 complete control
In short: as §1

[12] = system: lambsquarters (Chenopodium album); details: for Plant response rating, Lambsquarters: scale 0 to 100, 0 no effect, 100 complete control
In short: as §1

[13] = system: foxtail, giant (giant foxtail, Setaria faberii); details: for Plant response rating, Foxtail, Giant: scale 0 to 100, 0 no effect, 100 complete control
In short: as §1

[14] = system: pigweed (Amaranthus retroflexus); details: for Plant response rating, Pigweed: scale 0 to 100, 0 no effect, 100 complete control
In short: as §1

[15] = system: oilseed rape (Brassica napus); details: for Plant response rating, Oilseed Rape: scale 0 to 100, 0 no effect, 100 complete control
In short: as §1

[16] = 31 g ai/ha, 0 is no effect, 100 is complete control

CN1CC(c2ccc(F)c(C(F)(F)F)c2)C(C(=O)Nc2cccc(F)c2F)C1=O (centres unmarked) [Compound 613]
Plant response rating (scale of 0 to 100), Soybean (soybean (Glycine max); [16]): 0
Plant response rating, Soybean (soybean (Glycine max); 62 g ai/ha): 0
Plant response rating, Soybean (soybean (Glycine max); 125 g ai/ha): 0
Plant response rating, Soybean (soybean (Glycine max); 250 g ai/ha): 0
Plant response rating (scale of 0 to 100), Morningglory [1, 16]: 40
Plant response rating, Morningglory ([1]; 62 g ai/ha): 40
Plant response rating, Morningglory ([1]; 125 g ai/ha): 55
Plant response rating, Morningglory ([1]; 250 g ai/ha): 50
Plant response rating (scale of 0 to 100), Waterhemp [2, 16]: 70
Plant response rating, Waterhemp ([2]; 62 g ai/ha): 75
Plant response rating, Waterhemp ([2]; 125 g ai/ha): 85
Plant response rating, Waterhemp ([2]; 250 g ai/ha): 90
Plant response rating (scale of 0 to 100), Velvetleaf [3, 16]: 30
Plant response rating, Velvetleaf ([3]; 62 g ai/ha): 40
Plant response rating, Velvetleaf ([3]; 125 g ai/ha): 40
Plant response rating, Velvetleaf ([3]; 250 g ai/ha): 70
Plant response rating (scale of 0 to 100), Barnyardgrass [4, 16]: 90
Plant response rating, Barnyardgrass ([4]; 62 g ai/ha): 95
Plant response rating, Barnyardgrass ([4]; 125 g ai/ha): 95
Plant response rating, Barnyardgrass ([4]; 250 g ai/ha): 98
Plant response rating (scale of 0 to 100), Ragweed [5, 16]: 25
Plant response rating, Ragweed ([5]; 62 g ai/ha): 25
Plant response rating, Ragweed ([5]; 125 g ai/ha): 40
Plant response rating, Ragweed ([5]; 250 g ai/ha): 65
Plant response rating (scale of 0 to 100), Corn (corn (Zea mays); [16]): 40
Plant response rating, Corn (corn (Zea mays); 62 g ai/ha): 55
Plant response rating, Corn (corn (Zea mays); 125 g ai/ha): 65
Plant response rating, Corn (corn (Zea mays); 250 g ai/ha): 85
Plant response rating (scale of 0 to 100), Wheat [6, 16]: 25
Plant response rating, Wheat ([6]; 62 g ai/ha): 45
Plant response rating, Wheat ([6]; 125 g ai/ha): 65
Plant response rating, Wheat ([6]; 250 g ai/ha): 70
Plant response rating (scale of 0 to 100), Nutsedge, Yellow [7, 16]: 0
Plant response rating, Nutsedge, Yellow ([7]; 62 g ai/ha): 0
Plant response rating, Nutsedge, Yellow ([7]; 125 g ai/ha): 10
Plant response rating, Nutsedge, Yellow ([7]; 250 g ai/ha): 20
Plant response rating (scale of 0 to 100), Galium [8, 16]: 90
Plant response rating, Galium ([8]; 62 g ai/ha): 90
Plant response rating, Galium ([8]; 125 g ai/ha): 90
Plant response rating, Galium ([8]; 250 g ai/ha): 90
Plant response rating (scale of 0 to 100), Blackgrass [9, 16]: 85
Plant response rating, Blackgrass ([9]; 62 g ai/ha): 85
Plant response rating, Blackgrass ([9]; 125 g ai/ha): 95
Plant response rating, Blackgrass ([9]; 250 g ai/ha): 95
Plant response rating (scale of 0 to 100), Crabgrass, Large [10, 16]: 95
Plant response rating, Crabgrass, Large ([10]; 62 g ai/ha): 95
Plant response rating, Crabgrass, Large ([10]; 125 g ai/ha): 95
Plant response rating, Crabgrass, Large ([10]; 250 g ai/ha): 98
Plant response rating (scale of 0 to 100), Ryegrass, Italian [11, 16]: 10
Plant response rating, Ryegrass, Italian ([11]; 62 g ai/ha): 25
Plant response rating, Ryegrass, Italian ([11]; 125 g ai/ha): 75
Plant response rating, Ryegrass, Italian ([11]; 250 g ai/ha): 95
Plant response rating (scale of 0 to 100), Lambsquarters [12, 16]: 25
Plant response rating, Lambsquarters ([12]; 62 g ai/ha): 60
Plant response rating, Lambsquarters ([12]; 125 g ai/ha): 50
Plant response rating, Lambsquarters ([12]; 250 g ai/ha): 75
Plant response rating (scale of 0 to 100), Foxtail, Giant [13, 16]: 95
Plant response rating, Foxtail, Giant ([13]; 62 g ai/ha): 95
Plant response rating, Foxtail, Giant ([13]; 125 g ai/ha): 95
Plant response rating, Foxtail, Giant ([13]; 250 g ai/ha): 98
Plant response rating (scale of 0 to 100), Pigweed [14, 16]: 70
Plant response rating, Pigweed ([14]; 62 g ai/ha): 80
Plant response rating, Pigweed ([14]; 125 g ai/ha): 85
Plant response rating, Pigweed ([14]; 250 g ai/ha): 90
Plant response rating (scale of 0 to 100), Oilseed Rape [15, 16]: 15
Plant response rating, Oilseed Rape ([15]; 62 g ai/ha): 70
Plant response rating, Oilseed Rape ([15]; 125 g ai/ha): 90
Plant response rating, Oilseed Rape ([15]; 250 g ai/ha): 90
